Reference: patent US20260108546A1 (ELI LILLY AND COMPANY, priority 2024, published 2026)

Target: T1, hGIP-R (Homo sapiens, UniProt P48546)
T1 construct: expressed in transfected cells; host or cells: HEK-293 clonal cell lines
T1 sequence (P48546 22-466): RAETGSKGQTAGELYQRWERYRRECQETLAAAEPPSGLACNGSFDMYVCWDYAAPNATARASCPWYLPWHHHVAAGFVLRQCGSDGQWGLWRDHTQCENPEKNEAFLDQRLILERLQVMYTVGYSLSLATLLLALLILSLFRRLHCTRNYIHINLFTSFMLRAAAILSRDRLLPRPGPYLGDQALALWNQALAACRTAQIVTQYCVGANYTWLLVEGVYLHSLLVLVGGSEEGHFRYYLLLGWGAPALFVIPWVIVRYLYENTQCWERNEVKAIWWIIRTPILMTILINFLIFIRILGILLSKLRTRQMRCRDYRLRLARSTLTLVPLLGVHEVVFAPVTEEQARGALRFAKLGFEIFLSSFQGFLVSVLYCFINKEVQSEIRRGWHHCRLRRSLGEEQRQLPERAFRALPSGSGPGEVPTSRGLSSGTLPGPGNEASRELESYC
Test: Functional hGIP-R Assay (cAMP formation, HTRF)
Format: cell-based
Settings: for Emax: cAMP efficacy, percent of maximal response to GIP(1-42)OH, 37° C., 0.1% bovine casein, arithmetic mean ± SEM; for EC50: cAMP potency, HEK-293 cells expressing hGIP-R, incubated at 37° C. in the presence of 0.1% bovine casein, geometric mean, read-out: Human GIP-R EC50, nM (SEM, n)
Method in brief: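 HEK-293 cells expressing hGIP-R were given a 20-point compound series in DMEM with 0.1% casein, 250 μM IBMX, 1% DMSO, 30 min at 37 °C. cAMP was read by HTRF against a standard curve, expressed as % of human GIP (1-42) OH maximum; EC50 and Emax came from four-parameter fits.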

Structure (SMILES) | Emax | EC50
Cc1nc(-c2ccc(C(C)(C)O)nc2)ccc1[C@H]1C[C@@]12CCN([C@H](Cc1cnn(C(F)F)c1)C(=O)NC(C)(C)Cn1nc(C(F)(F)F)cc1-c1ccn(C3CC3)c(=O)c1)C2=O [Example 171, (R)-N-(1-(5-(1-cyclopropyl-2-oxo-1,2-dihydropyridin-4-yl)-3-(trifluoromethyl)-1H-pyrazol-1-yl)-2-methylpropan-2-yl)-3-(1-(difluoromethyl)-1H-pyrazol-4-yl)-2-((1R,3R)-1-(6′-(2-hydroxypropan-2-yl)-6-methyl-[2,3′-bipyridin]-5-yl)-4-oxo-5-azaspiro[2.4]heptan-5-yl)propanamide] | 25.1 ± 2.38% | 14.2 nM
COc1ccc(-c2ccc([C@H]3C[C@@]34CCN([C@H](Cc3cnn(C(F)F)c3)C(=O)NC(C)(C)Cn3nc(C(F)(F)F)cc3-c3ccn(C5CC5)c(=O)c3)C4=O)c(C)n2)cn1 [Example 172, (R)-N-(1-(5-(1-cyclopropyl-2-oxo-1,2-dihydropyridin-4-yl)-3-(trifluoromethyl)-1H-pyrazol-1-yl)-2-methylpropan-2-yl)-3-(1-(difluoromethyl)-1H-pyrazol-4-yl)-2-((1R,3R)-1-(6′-methoxy-6-methyl-[2,3′-bipyridin]-5-yl)-4-oxo-5-azaspiro[2.4]heptan-5-yl)propanamide] | 12.6 ± 0.102% | 3.16 nM
[2H]C([2H])([2H])n1cc(C[C@H](C(=O)NC(C)(C)Cn2nc(C(F)(F)F)cc2-c2ccc(C)nc2)N2CC[C@@]3(C[C@@H]3c3ccc(-c4cnc5nc(C6CC6)cn5c4)nc3C)C2=O)cn1 [Example 175, (R)-2-((1R,3R)-1-(6-(2-cyclopropylimidazo[1,2-a]pyrimidin-6-yl)-2-methylpyridin-3-yl)-4-oxo-5-azaspiro[2.4]heptan-5-yl)-N-(2-methyl-1-(5-(6-methylpyridin-3-yl)-3-(trifluoromethyl)-1H-pyrazol-1-yl)propan-2-yl)-3-(1-(methyl-d3)-1H-pyrazol-4-yl)propanamide] | 112 ± 1.44% | 0.996 nM
Cc1cn2cc(-c3ccc([C@H]4C[C@@]45CCN([C@H](Cc4cnn(C(F)F)c4)C(=O)NC(C)(C)Cn4nc(C(F)(F)F)cc4-c4ccc(C(C)(C)O)nc4)C5=O)c(C)n3)cnc2n1 [Example 178, (R)-3-(1-(difluoromethyl)-1H-pyrazol-4-yl)-N-(1-(5-(6-(2-hydroxypropan-2-yl)pyridin-3-yl)-3-(trifluoromethyl)-1H-pyrazol-1-yl)-2-methylpropan-2-yl)-2-((1R,3R)-1-(2-methyl-6-(2-methylimidazo[1,2-a]pyrimidin-6-yl)pyridin-3-yl)-4-oxo-5-azaspiro[2.4]heptan-5-yl)propanamide] | 39.9 ± 0.556% | 0.743 nM
Cc1ncc(-c2cc(C(F)(F)F)nn2CC(C)(C)NC(=O)[C@@H](Cc2cnn(C(F)F)c2)N2CC[C@@]3(C[C@@H]3c3ccc(-c4cnc5nn(C6CC6)cc5c4)nc3C)C2=O)cn1 [Example 179, (R)-2-((1R,3R)-1-(6-(2-cyclopropyl-2H-pyrazolo[3,4-b]pyridin-5-yl)-2-methylpyridin-3-yl)-4-oxo-5-azaspiro[2.4]heptan-5-yl)-3-(1-(difluoromethyl)-1H-pyrazol-4-yl)-N-(2-methyl-1-(5-(2-methylpyrimidin-5-yl)-3-(trifluoromethyl)-1H-pyrazol-1-yl)propan-2-yl)propanamide] | 75.9 ± 4.59% | 2.95 nM
COc1nnc(C)cc1-c1cc(C(F)(F)F)nn1CC(C)(C)NC(=O)[C@@H](Cc1cnn(C(F)F)c1)N1CC[C@@]2(C[C@@H]2c2ccc(-c3cnc4nn(C)cc4c3)nc2C)C1=O [Example 180, (R)-3-(1-(difluoromethyl)-1H-pyrazol-4-yl)-N-(1-(5-(3-methoxy-6-methylpyridazin-4-yl)-3-(trifluoromethyl)-1H-pyrazol-1-yl)-2-methylpropan-2-yl)-2-((1R,3R)-1-(2-methyl-6-(2-methyl-2H-pyrazolo[3,4-b]pyridin-5-yl)pyridin-3-yl)-4-oxo-5-azaspiro[2.4]heptan-5-yl)propanamide] | 35.4 ± 1.96% | 7.75 nM
COC(=O)N(C)c1cc([C@H]2C[C@@H]2C(=O)N[C@H](Cc2cnn(C(F)F)c2)C(=O)NC(C)(C)Cn2nc(C(F)(F)F)cc2-c2cc(F)c(=O)n(C)c2)c(F)cc1O [Example 181, Methyl (5-((1S,2S)-2-(((R)-3-(1-(difluoromethyl)-1H-pyrazol-4-yl)-1-((1-(5-(5-fluoro-1-methyl-6-oxo-1,6-dihydropyridin-3-yl)-3-(trifluoromethyl)-1H-pyrazol-1-yl)-2-methylpropan-2-yl)amino)-1-oxopropan-2-yl)carbamoyl)cyclopropyl)-4-fluoro-2-hydroxyphenyl)(methyl)carbamate] | 25.5 ± 2.92% | 23.1 nM
Cn1cc(-c2cc(C(F)(F)F)nn2CC(C)(C)NC(=O)[C@@H](Cc2cnn(C(F)F)c2)NC(=O)[C@H]2C[C@@H]2c2ccc3c(c2)n(C)c(=O)n3C)cc(F)c1=O [Example 182] | 30.4 ± 2.08% | 41.4 nM

Continued by falling EC50, values first:

Emax | EC50 | Structure (SMILES)
4.64 ± 0.608% | 44.9 nM | Cn1cc(-c2cc(C(F)(F)F)nn2CC(C)(C)NC(=O)[C@@H](Cc2cnn(C(F)F)c2)NC(=O)[C@H]2C[C@@H]2c2ccc3c(Cl)nn(C)c3c2)cc(F)c1=O [Example 183, (1S,2S)-2-(3-chloro-1-methyl-1H-indazol-6-yl)-N-((R)-3-(1-(difluoromethyl)-1H-pyrazol-4-yl)-1-((1-(5-(5-fluoro-1-methyl-6-oxo-1,6-dihydropyridin-3-yl)-3-(trifluoromethyl)-1H-pyrazol-1-yl)-2-methylpropan-2-yl)amino)-1-oxopropan-2-yl)cyclopropane-1-carboxamide]
15.9 ± 0.138% | 24.6 nM | COc1ncc(-c2ccc([C@H]3C[C@@]34CCN([C@H](Cc3cnn(C(F)F)c3)C(=O)NC(C)(C)Cn3nc(C(F)(F)F)cc3-c3ccn(C5CC5)c(=O)c3)C4=O)c(C)n2)cn1 [Example 173, (R)-N-(1-(5-(1-cyclopropyl-2-oxo-1,2-dihydropyridin-4-yl)-3-(trifluoromethyl)-1H-pyrazol-1-yl)-2-methylpropan-2-yl)-3-(1-(difluoromethyl)-1H-pyrazol-4-yl)-2-((1R,3R)-1-(6-(2-methoxypyrimidin-5-yl)-2-methylpyridin-3-yl)-4-oxo-5-azaspiro[2.4]heptan-5-yl)propanamide]
123% | 14.4 nM | COCc1cn2cc(-c3ccc([C@H]4C[C@@]45CCN([C@H](Cc4cnn(C(F)F)c4)C(=O)NC(C)(C)Cn4nc(C(F)(F)F)cc4-c4cncc(C)n4)C5=O)c(C)n3)cnc2n1 [Example 176, (R)-3-(1-(difluoromethyl)-1H-pyrazol-4-yl)-2-((1R,3R)-1-(6-(2-(methoxymethyl)imidazo[1,2-a]pyrimidin-6-yl)-2-methylpyridin-3-yl)-4-oxo-5-azaspiro[2.4]heptan-5-yl)-N-(2-methyl-1-(5-(6-methylpyrazin-2-yl)-3-(trifluoromethyl)-1H-pyrazol-1-yl)propan-2-yl)propanamide]
13.4 ± 1.64% | 6.09 nM | COc1ncc(-c2ccc([C@H]3C[C@@]34CCN([C@H](Cc3cnn(C(F)F)c3)C(=O)NC(C)(C)Cn3nc(C(F)(F)F)cc3-c3ccn(C5CC5)c(=O)c3)C4=O)c(C)n2)cc1F [Example 174, (R)-N-(1-(5-(1-cyclopropyl-2-oxo-1,2-dihydropyridin-4-yl)-3-(trifluoromethyl)-1H-pyrazol-1-yl)-2-methylpropan-2-yl)-3-(1-(difluoromethyl)-1H-pyrazol-4-yl)-2-((1R,3R)-1-(5′-fluoro-6′-methoxy-6-methyl-[2,3′-bipyridin]-5-yl)-4-oxo-5-azaspiro[2.4]heptan-5-yl)propanamide]
